Assay results published in BindingDB's records for patent US20250268873 (XRAD Therapeutics, 2025).

Columns and labels:
[1] = target: DNA-dependent protein kinase catalytic subunit (Homo sapiens, UniProt P78527); test: DNA-PK Enzyme-Linked Immunosorbent Assay
Description: On day one, a 96-well plate (ThermoFisher, Cat #: 442404) was coated with GST-p53 (1-101) peptide (purified by Pharmaron, BCS department) by diluting 3 μg of GST-p53 in each well with 0.1 M Na2CO3/NaHCO3 (pH 9.6). The plate was incubated overnight at 4° C. On the second day, the coating buffer was removed, and the plate was washed twice with PBST (1×PBS containing 0.1% Tween-20). The DNA-PK enzyme solution (Invitrogen, #PR9107A; the final DNA-PK concentration: 0.1 μg/mL) was then added. The compounds were serially diluted to the final maximal concentration of 100 nM (3 fold series dilution, a total of 10 doses), and an ATP solution (the final ATP concentration: 20 μM) was added to the plate. Incubate the plate at 25° C. for 1 hour. The plate was washed three times with PBST (1×PBS containing 0.1% Tween-20) and blocked with a solution of PBST and 1% BSA at 4° C. overnight. The third day, the plate was washed four times with PBST (1×PBS containing 0.1% Tween-20). Anti-phospho-p53 primary antibody (cell signaling Technology, #9286, Phospho-p53 (Ser15) (16G8) Mouse mAb) (1/1000) was added to each well. The plate was sealed, incubated 1 h at 37° C., and washed four times with PBST (1×PBS containing 0.1% Tween-20). An HRP-linked secondary antibody (Cell signaling Technology, #7076, Anti-mouse IgG, HRP-linked Antibody) (1/1000) (100 μL) was added to each well. […]

[2] = target: Phosphatidylinositol 4,5-bisphosphate 3-kinase catalytic subunit alpha isoform (Homo sapiens, UniProt P42336); test: PI3Kα and PI3Kδ Biochemical Assay
Description: (§1) PI3Kα and PI3Kδ Kinase reactions were performed in a 5 μL volume in low-volume 384-well plates. Typically, PerkinElmer model 6008280 plates were used. The 1× kinase reaction buffer consisted of 50 mM HEPES pH 7.5, 3 mM MgCl2, 0.03% CHAPS, 1 mM EGTA, 100 mM NaCl, and 2 mM DTT. PI3Kα (ThermoFisher, #PV4788; the final PI3Kα concentration: 120 ng/mL) or PI3Kδ enzyme solution (ThermoFisher, #PV6451; the final PI3Kδ concentration: 250 ng/mL) was added to the plate, compounds were serially diluted to the final maximal concentration of 100 nM (3 fold series dilution, a total of 10 doses), and the PIP2:3PS (the final concentration: 10 μg/mL) and ATP solution (the final ATP concentration: 10 μM) was added to the 384-well plate. The plate was incubated at 25° C. for 1 hour. ADP-Glo reagent buffer (5 μL) was added to each well. The plate was sealed and incubated for 40 min at 25° C. ADP-Glo detection buffer (10 μL) was added to each well, and the plate was incubated for 40 min at 25° C. and read on a plate reader configured for Luminescence.

[3] = target: T1, Phosphatidylinositol 4,5-bisphosphate 3-kinase catalytic subunit delta isoform (Homo sapiens, UniProt O00329); test: PI3Kα and PI3Kδ Biochemical Assay
T1 sequence (O00329 whole entry): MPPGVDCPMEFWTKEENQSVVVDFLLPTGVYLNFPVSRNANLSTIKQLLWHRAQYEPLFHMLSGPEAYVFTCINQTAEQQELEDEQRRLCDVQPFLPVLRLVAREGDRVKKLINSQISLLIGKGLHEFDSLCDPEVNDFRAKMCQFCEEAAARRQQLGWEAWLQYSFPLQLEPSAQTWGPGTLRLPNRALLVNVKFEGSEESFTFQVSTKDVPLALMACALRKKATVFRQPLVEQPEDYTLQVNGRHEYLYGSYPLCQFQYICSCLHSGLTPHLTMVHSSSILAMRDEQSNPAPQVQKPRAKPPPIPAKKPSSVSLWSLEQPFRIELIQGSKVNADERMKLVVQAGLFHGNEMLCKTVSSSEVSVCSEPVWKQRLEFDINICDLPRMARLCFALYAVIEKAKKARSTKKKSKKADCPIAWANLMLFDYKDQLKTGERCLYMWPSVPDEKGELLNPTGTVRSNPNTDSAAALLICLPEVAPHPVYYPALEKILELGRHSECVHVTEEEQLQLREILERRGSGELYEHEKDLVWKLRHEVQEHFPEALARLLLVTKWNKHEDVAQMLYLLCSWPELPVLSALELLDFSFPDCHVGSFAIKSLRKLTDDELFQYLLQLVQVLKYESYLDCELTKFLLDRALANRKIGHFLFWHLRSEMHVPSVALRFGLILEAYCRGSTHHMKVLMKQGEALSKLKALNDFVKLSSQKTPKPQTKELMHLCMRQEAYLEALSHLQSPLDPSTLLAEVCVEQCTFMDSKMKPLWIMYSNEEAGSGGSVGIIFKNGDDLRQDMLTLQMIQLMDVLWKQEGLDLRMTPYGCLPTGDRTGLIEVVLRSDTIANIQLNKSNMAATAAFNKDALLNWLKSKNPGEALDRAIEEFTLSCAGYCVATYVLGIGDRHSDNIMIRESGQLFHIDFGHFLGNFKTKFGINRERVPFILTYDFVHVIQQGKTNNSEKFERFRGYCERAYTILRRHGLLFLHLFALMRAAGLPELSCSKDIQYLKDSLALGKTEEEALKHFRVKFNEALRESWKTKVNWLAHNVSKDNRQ
Description: as §1

Chain of Phosphatidylinositol 4,5-bisphosphate 3-kinase catalytic subunit alpha isoform (P42336 whole entry, canonical isoform): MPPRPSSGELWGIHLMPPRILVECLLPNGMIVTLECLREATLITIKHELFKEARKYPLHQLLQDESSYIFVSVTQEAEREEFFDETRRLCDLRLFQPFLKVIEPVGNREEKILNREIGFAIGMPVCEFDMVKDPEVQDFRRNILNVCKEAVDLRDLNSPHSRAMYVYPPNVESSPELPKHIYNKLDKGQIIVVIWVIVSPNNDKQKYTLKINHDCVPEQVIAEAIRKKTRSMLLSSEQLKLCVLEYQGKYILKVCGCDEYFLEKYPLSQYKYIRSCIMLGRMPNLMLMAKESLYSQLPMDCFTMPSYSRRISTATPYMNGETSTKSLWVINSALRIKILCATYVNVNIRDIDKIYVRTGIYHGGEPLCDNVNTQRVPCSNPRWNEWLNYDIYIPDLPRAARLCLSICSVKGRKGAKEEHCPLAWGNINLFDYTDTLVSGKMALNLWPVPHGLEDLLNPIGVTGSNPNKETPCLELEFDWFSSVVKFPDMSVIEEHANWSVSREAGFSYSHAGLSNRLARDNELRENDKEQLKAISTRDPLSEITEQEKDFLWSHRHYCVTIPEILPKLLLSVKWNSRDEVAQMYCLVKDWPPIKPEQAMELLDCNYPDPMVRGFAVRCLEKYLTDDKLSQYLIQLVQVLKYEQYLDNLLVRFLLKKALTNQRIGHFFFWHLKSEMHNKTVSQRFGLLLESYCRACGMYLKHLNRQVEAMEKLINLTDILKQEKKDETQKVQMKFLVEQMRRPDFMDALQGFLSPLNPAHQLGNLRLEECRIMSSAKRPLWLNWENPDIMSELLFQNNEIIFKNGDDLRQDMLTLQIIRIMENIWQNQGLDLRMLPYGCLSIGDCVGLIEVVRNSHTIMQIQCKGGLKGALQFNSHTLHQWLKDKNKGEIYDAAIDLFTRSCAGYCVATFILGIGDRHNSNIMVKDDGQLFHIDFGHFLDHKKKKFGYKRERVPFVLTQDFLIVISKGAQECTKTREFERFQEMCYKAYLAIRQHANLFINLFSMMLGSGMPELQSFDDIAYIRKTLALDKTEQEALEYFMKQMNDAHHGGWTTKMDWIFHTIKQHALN
Chain of DNA-dependent protein kinase catalytic subunit (P78527 whole entry): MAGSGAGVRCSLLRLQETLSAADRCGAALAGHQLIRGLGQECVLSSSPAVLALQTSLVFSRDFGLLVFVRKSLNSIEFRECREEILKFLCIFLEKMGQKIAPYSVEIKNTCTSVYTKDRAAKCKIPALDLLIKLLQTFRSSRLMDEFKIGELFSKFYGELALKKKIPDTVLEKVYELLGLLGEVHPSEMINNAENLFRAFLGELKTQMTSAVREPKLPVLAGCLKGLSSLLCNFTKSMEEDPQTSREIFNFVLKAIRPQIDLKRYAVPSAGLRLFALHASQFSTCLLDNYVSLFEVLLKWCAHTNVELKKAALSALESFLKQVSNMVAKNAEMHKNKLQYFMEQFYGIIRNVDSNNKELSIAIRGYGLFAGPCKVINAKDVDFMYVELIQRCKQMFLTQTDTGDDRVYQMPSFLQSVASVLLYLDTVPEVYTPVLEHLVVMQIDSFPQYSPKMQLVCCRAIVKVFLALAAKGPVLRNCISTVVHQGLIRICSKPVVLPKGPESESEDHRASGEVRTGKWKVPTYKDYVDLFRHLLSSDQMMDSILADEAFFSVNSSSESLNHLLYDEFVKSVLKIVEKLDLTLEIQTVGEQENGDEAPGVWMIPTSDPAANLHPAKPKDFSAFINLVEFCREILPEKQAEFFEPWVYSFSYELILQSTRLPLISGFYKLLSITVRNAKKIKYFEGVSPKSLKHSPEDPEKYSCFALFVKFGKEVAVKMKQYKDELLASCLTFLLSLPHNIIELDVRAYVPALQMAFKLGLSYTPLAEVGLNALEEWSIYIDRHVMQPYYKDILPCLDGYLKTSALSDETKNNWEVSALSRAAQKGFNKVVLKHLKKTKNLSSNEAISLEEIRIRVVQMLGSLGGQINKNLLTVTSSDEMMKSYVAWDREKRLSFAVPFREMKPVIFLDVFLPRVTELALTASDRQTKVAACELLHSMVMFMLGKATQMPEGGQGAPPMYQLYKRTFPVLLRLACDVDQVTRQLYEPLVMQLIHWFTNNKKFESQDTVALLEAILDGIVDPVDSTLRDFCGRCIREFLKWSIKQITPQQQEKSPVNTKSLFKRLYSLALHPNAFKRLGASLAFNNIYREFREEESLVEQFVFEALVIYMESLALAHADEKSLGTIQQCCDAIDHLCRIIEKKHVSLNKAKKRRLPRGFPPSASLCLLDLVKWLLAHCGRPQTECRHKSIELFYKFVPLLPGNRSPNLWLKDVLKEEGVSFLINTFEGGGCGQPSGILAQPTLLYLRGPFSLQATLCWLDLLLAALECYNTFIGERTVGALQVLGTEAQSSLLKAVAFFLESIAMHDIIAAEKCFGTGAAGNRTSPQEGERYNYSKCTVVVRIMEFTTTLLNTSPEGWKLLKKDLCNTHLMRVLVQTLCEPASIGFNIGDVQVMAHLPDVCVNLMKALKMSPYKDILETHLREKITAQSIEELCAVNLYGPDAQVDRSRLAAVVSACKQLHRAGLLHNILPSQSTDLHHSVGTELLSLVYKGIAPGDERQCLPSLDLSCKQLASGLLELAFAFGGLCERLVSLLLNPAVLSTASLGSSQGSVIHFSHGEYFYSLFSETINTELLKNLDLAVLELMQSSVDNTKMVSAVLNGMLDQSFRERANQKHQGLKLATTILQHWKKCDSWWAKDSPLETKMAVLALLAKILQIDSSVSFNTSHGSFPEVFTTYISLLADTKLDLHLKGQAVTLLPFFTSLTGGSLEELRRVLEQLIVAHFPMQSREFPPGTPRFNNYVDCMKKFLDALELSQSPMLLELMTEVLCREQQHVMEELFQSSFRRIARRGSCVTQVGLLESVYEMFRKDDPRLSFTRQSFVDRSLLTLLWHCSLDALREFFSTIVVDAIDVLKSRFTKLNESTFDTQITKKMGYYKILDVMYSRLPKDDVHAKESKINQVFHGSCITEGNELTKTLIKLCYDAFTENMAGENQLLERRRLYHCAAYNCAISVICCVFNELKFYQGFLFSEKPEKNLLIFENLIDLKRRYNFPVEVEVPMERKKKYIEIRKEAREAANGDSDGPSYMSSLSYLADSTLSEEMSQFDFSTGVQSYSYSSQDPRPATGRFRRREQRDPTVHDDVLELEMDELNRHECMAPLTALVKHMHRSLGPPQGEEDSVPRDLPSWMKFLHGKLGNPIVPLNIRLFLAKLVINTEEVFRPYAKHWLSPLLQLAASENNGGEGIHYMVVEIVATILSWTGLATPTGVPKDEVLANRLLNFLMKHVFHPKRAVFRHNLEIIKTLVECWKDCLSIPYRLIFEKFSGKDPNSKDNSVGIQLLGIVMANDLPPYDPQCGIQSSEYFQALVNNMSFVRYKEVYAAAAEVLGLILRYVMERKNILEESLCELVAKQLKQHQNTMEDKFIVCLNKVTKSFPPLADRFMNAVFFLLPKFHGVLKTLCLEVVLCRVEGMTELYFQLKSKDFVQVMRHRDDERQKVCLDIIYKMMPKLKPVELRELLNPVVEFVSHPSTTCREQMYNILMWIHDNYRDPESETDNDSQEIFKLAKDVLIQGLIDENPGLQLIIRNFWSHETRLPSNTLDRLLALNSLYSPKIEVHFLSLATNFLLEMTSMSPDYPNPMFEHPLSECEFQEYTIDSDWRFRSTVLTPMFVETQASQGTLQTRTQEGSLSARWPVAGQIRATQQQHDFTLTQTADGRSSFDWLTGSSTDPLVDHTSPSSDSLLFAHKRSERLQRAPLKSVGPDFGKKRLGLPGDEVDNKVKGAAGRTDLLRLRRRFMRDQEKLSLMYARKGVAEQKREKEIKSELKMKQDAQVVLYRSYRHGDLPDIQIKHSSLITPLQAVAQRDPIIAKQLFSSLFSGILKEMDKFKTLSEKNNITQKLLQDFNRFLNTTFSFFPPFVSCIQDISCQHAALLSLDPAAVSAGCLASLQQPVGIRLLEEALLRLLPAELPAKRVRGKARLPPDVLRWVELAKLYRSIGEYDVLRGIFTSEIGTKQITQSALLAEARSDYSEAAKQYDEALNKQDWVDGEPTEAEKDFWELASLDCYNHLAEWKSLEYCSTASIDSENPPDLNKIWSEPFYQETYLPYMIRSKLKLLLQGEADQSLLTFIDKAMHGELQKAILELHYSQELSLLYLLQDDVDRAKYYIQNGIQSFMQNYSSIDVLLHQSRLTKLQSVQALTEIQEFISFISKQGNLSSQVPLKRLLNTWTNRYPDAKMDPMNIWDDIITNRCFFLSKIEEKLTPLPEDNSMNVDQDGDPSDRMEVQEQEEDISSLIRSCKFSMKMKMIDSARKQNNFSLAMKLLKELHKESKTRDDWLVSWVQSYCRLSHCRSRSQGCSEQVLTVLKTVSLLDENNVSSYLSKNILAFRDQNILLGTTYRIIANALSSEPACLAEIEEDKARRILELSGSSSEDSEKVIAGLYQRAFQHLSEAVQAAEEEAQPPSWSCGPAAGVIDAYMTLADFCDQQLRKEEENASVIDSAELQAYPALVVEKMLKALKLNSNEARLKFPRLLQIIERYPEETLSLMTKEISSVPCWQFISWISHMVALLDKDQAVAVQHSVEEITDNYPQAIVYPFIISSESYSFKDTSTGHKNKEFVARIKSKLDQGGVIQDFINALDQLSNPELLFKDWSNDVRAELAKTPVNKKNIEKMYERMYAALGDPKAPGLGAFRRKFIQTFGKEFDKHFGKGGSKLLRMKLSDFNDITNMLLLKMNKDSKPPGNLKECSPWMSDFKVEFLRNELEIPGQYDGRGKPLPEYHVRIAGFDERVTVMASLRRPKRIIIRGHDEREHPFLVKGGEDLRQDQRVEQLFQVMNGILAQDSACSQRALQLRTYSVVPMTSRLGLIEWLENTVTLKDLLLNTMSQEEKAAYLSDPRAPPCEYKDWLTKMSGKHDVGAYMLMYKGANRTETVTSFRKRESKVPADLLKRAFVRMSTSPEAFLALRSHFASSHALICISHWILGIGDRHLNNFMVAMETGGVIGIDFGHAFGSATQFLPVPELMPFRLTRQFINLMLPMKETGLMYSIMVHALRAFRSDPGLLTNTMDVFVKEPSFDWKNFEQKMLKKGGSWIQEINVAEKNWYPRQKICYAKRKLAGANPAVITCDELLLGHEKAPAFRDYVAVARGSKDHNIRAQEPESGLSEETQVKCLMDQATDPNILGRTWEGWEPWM

Row | SMILES | IC50 [1] [nM] | IC50 [2] [nM] | IC50 [3] [nM]
1 | CC(C)NCCOC1=NCC(C2=CC3C4=C(C=NC3CC2F)N(C)C(=O)C42CCC2)C=C1NS(=O)(=O)C(C)C (stereo unspecified) [US20250268873, Compound 568] | 0.79 | 18 | 54
2 | CCS(=O)(=O)NC1=CC(C2=CC3C4=C(C=NC3CC2F)N(C)C(=O)C42CCC2)CN=C1OCCNC(C)C (stereo unspecified) [US20250268873, Compound 570] | 0.63 | 21 | 55
